Measured values taken from article PMC11039730, “In situ captured antibacterial action of membrane-incising peptide lamellae” (Nature Communications, 2024).
Values after ≈ are worked out from the molar mass of the structure shown. Read-outs that look alike come from different tables or passages of the source.

Experiments:
[1] = test system: MonoMac 6 human monocytic cells; format: cell-based; details: 2 h, AlamarBlue, mean ± SEM, n = 4
Procedure: To evaluate the cytotoxicity of the compounds, AlamarBlue viability assay was performed on MonoMac 6 human monocytic cells (DSMZ no.: ACC 124, Braunschweig, Germany). […] Cells were maintained as an adherent culture in RPMI-1640 media (Lonza, Basel), supplemented with 10% FCS, L-glutamine (2 mM) and penicillin/streptomycin (50 IU/mL and 50 μg/mL) at 37 °C in a humidified atmosphere containing 5% CO2. On the day of the experiment, cells were washed twice with serum-free RPMI or with TRIS-HCl buffer (0.1 M, pH = 7.4) and plated in 96-well flat-bottom tissue culture plates (Sarstedt) (20,000 cells). 250 μM of the lamellin-3K was dissolved and serially diluted (125 μM, 62.5 μM, 31.25 μM, 15.63 μM, 7.81 μM, 3.91 μM, 1.95 μM) in the corresponding assay medium and added to the cells. The final concentration range was between 1.95 and 250 μM and the final volume was 100 μL. […] Following a 2 h of incubation, the fluorescence was measured at λEx = 530/30 and λEm = 610/10 nm using a Synergy H4 multi-mode microplate reader (BioTek). The percent of viability was calculated compared to untreated control wells. […] IC50 values were calculated from the dose-response curves, after fitting with sigmoidal funcion using the GraphPad Prism software package. […]
parallel experiments and error bars represent SEM. The viability percentage was calculated relative to the untreated […]

[2] = ANS binding fluorescence (assembly formation); format: physicochemical; details: 125 μM peptide, 2.5 μM ANS, mean of 3
Procedure: Fluorescence spectra were recorded using a JASCO FP-8500 spectrofluorometer with an excitation and emission bandwidth of 10 nm and 20 nm, respectively. Three accumulations were measured each time. The 8-anilino-1-naphthalenesulfonic acid (ANS) fluorophore was excited at 388 nm and the emission was recorded from 410 to 600 nm. Binding assays were performed using 125 μM peptide (50 μL) and 2.5 μM ANS. Spectra were corrected for those of the corresponding peptide solutions. page 11: Supplementary Figure 8: ANS binding capacity is higher for 3K and in phosphate media. ANS binding of 2K and 3K (125 μM) were tested in the indicated media using the ANS probe at 2.5 μM. The emission intensities at the maxima were read, and values were normalized for that of unbound ANS. Gray line highlights the reference signal of free ANS. In all tested media, higher ANS binding was detected for 3K over 2K. […] Error bars represent the standard deviation of the mean for three independent experiment sets. 11 (1 picture or pasted object on this page, not shown here)

[3] = test system: BL21 DE3 Escherichia coli strain; format: cell-based
Procedure: To investigate the antimicrobial effect of lamellin-2K and lamellin-3K, we used the BL21 DE3 Escherichia coli strain with chromosomal resistance to chloramphenicol. The inoculum was grown overnight in the presence of 30 μM chloramphenicol. 0.5 mL of this inoculum was diluted into 50 mL fresh LB medium and grown till the optical density at 600 nm reached 0.5−0.6 indicating an exponential growth phase. Cells were then centrifuged at 3220 g at 4 °C for 20 min, washed twice in the assay medium (MQ water, 10 mM PBS, or 0.15 mM NaCl), then resuspended in 5 mL of the same medium. 10 μL cell suspension was diluted with the peptide solution to a final concentration of 250 μM, 125 μM, 60 μM, 30 μM, 10 μM, 5 μM, 1 μM and 0 μM (control) in 100 μl volume and incubated for 2 h in sterile, low-bind, U-bottom 96-well microplates (Greiner Bio-One, Hungary) with oxygen penetrating lid at 37 °C, at continuous shaking in a BioTek Synergy Mx plate reader. Aliquots from the wells were taken for the quantification of bacterial viability on LB agar plates after incubation at 37 °C for 16 h to obtain CFU/mL data. Treatments were performed in three biological replicates, each of which in three technical replicates.
Supplementary Figure 26: Antibacterial activity of 2K and 3K in the presence and absence of phosphate ions. a) Growth inhibition curves. Exponentially growing E. coli BL21 shaker cultures were exposed to the peptides at 37 °C in various media for 120 min. Treatments were performed in three biological replicates, each of which in three technical replicates. Data represent mean and error bars represent SEM. Data points are connected to guide the eye. b) Viability curves calculated from growth inhibition data in (a). Smooth lines are sigmoid fits to […]
Supplementary Table 6: Antimicrobial activity of 2K and 3K in various media. […]
* IC values are calculated from sigmoid fits to the viability vs. log(c) data points.
All errors are standard errors. […]

[4] = physchem; format: physicochemical; details: aqueous buffer
Procedure: For assignment purposes, appropriate amounts of lyophilized solid lamellin-2K (or lamellin-3K, respectively) were dissolved in H2O to prepare ~1 mM solutions, followed by 15 min sonication and addition of 10% D2O. For monitoring the effects of different solvents, the lyophilized lamellin-2K and lamellin-3K were dissolved in PBS, sonicated for 30 min, further on 10% D2O was added. For 2K, the concentration of the lamellin was ~250 μM and the solution contained PBS. […] After each addition, the solution was sonicated for 30 min. All samples were measured at 298 K. […]
Supplementary Figure 7: a) and b) Overlay of 1D 1H spectra in water (c = 1 mM, dark colour) and in PBS (light colour) for 2K (green) and 3K (blue), respectively. Concentration in PBS was ~ 250 µM for 2K and ~ 20 µM for 3K. c) and d) Regions of overlaid 1H-1H TOCSY (green) and 1H-1H ROESY (red) for 2K, indicating sequential connectivities. e) Variation of the 3K concentration during PBS titration determined from the integration of leucine […]

[5] = 10 mM PBS, 2 h at 37 °C, CFU on LB agar, sigmoid fit, ± standard error, 3 biological replicates
[6] = NaCl (0.15 mM [sic] NaCl), 2 h at 37 °C, CFU on LB agar, sigmoid fit, ± standard error, 3 biological replicates

Row | ANS fluorescence, Mean ([2]; H2O) | ANS fluorescence, Mean ([2]; NaCl) | ANS fluorescence, Mean ([2]; PBS) | ANS fluorescence, Mean ([2]; phosphate) | IC50 ([3]; 10 mM PBS, 2 h at 37 °C, CFU on LB agar, sigmoid fit, ± standard error, 3 biological replicates, read-out: IC50) | IC50 ([3]; BL21, 2 h) | IC50 ([3]; MQ water (phosphate-free), 2 h at 37 °C, CFU on LB agar, sigmoid fit, ± standard error, 3 biological replicates, read-out: IC50) | solubility thermodynamic at 30 min [4] | Structure (SMILES) | IC50 ([1]; RPMI (phosphate-containing, 5.6 mM Na2HPO4)) | IC50 ([1]; Tris-HCl (phosphate-free, 0.1 M, pH 7.4)) | IC20 [3, 5] | IC80 [3, 5] | IC20 [3, 6] | IC80 [3, 6] | IC80 ([3]; MQ water, 2 h at 37 °C, CFU on LB agar, sigmoid fit to viability vs log(c), ± standard error, 3 biological replicates) | IC20 ([3]; MQ water, 2 h at 37 °C, CFU on LB agar, sigmoid fit, ± standard error, 3 biological replicates)
1 | 3.21 arb. units | 7.78 arb. units | 14.27 arb. units | 19.27 arb. units | 11.6 ± 1.5 µM | 5.44 ± 0.91 µM | 1.24 µM | ~20 µM (≈ 23 µg/mL) | CCCC(=O)N[C@H](CC(=O)N[C@@H](CC(=O)N[C@@H](CCCCN)CC(=O)N[C@@H](CC(=O)N[C@@H](CCCCN)CC(=O)N[C@@H](CC(=O)N[C@@H](CCCCN)CC(=O)N[C@@H](CC(N)=O)CC(C)C)CC(C)C)CC(C)C)CC(C)C)CC(C)C [3K] | 126 ± 7.1 µM | 112 ± 8.4 µM | 9.27 ± 1.45 µM | 14.6 ± 1.46 µM | 4.22 ± 0.82 µM | 7 ± 1.02 µM | – | –
2 | 1.52 arb. units | 1.24 arb. units | 5.15 arb. units | 11.66 arb. units | – | – | – | – | CCCC(=O)N[C@H](CC(=O)N[C@@H](CC(=O)N[C@@H](CCCCN)CC(=O)N[C@@H](CC(=O)N[C@@H](CCCCN)CC(=O)N[C@@H](CC(N)=O)CC(C)C)CC(C)C)CC(C)C)CC(C)C [2K] | – | – | 46.1 ± 4.07 µM | 77.7 ± 3.93 µM | 54 ± 12.2 µM | 74.2 ± 10.8 µM | 11.2 ± 0.373 µM | 7.06 ± 0.343 µM
